Measured values as given in patent publication US7586023B1, “Methods of conferring ppo-inhibiting herbicide resistance to plants by gene manipulation” (Sumitomo Chemical Company, Limited, priority 1996, dated 2009).

Columns and labels:
[1] = system: E. coli strains with a cDNA encoding a herbicide-resistant PPO (resistant transformants); test: Colony formation of herbicide-resistant E. coli SASX38 transformants on LB+ampicillin agar with compound; type: cell-based; details: same concentration of Compound A, compared to medium free of Compound A
Source text: (§1) The plasmid vector containing the cDNA encoding a herbicide-sensitive PPO enzyme obtained in Example 2 or 9 is introduced into the mutant SASX38 strain of E. coli in which the endogenous the PPO gene (hemG locus) is deleted and herbicide-sensitive transformants are selected by the method in Example 2. Similarly, a cDNA encoding a herbicide-resistant PPO is obtained according to the method in Example 12, with a base pair alteration at the position of Val13 in SEQ. ID. NO.: 1, SEQ. ID. NO.: 2 and SEQ. ID. NO.: 3 resulting in the substitution of methionine for valine. Said cDNA is re-cloned in the plasmid vector pUC118 (Nishimura et al., J. Biol. Chem. 270: 8076 (1995)), and said plasmid vector is introduced into E. coli SASX38 to obtain herbicide-resistant transformants. Both sensitive and resistant transformants are separately plated on LB+ ampicillin agar medium supplemented with compound A at a given concentration, and incubated for two days. Colony formation is then evaluated to assess the growth of the sensitive and resistant transformants in the presence of the herbicide. […]

[2] = system: E. coli strains with the cDNA encoding a herbicide-sensitive PPO (sensitive transformants); test: Colony formation of herbicide-sensitive E. coli SASX38 transformants on LB+ampicillin agar with compound; type: cell-based; details: particular concentration of Compound A, two days, compared to medium lacking Compound A
Source text: as §1

[3] = system: Chlamydomonas reinhardtii GB-2951; test: Herbicide resistance test of GB-2951 grown in TAP liquid media with various concentrations of the compounds; type: cell-based; details: compared with wild type strain CC-125
Protocol: Resistance of GB-2951 to several herbicides was tested by growing the strain in TAP liquid media containing various concentration of the compounds, according to the method described by Shibata et al. (Research in Photosynthesis, Vol III, pp. 567-570, Murata ed., c. 1992 by Kluwer Academic Publisher, Dordrecht, Netherlands). […] Moreover, GB-2951 was crossed to wild type strain CC-124 and several sets of tetrads were isolated according to the method as described by Harris (Harris, E. H., The Chlamydomonas Sourcebook, c. 1989 by Academic Press, San Diego, Calif.). All tetrads segregated two herbicide (compound A) sensitive and two herbicide-resistant progeny. In addition, tetrads from a cross of GB-2951 to RS-322, a porphyria herbicide-resistant isolate from a cross of RS-3 and CC-124, yielded no herbicide-sensitive progeny.

Abutilon theophrasti = test: Weed control test in greenhouse; type: in vivo; details: 100 g/ha; either method (soil surface after sowing, 27 days; sprayed onto plants at 18 days, 20 days)
Protocol: (§2) Flats with an area of 33×23 cm^2 and a depth of 11 cm are filled with upland field soil. Seeds of crop plants with herbicide-resistant PPO genes developed according to methods similar to those described in Example 16 are planted along with those of weeds such as Echinochloa crus-galli, Abutilon theophrasti and Ipomoea hederacea, and covered with 1-2 cm soil. Compounds of formulae 20 and 22 (wherein R is an ethyl group) of an amount of equivalent to 100 g/ha are dissolved in 20 volumes of a mixture of surfactant and liquid carrier, such as a mixture of calcium dodecylbenzenesulfonate/polyoxyethylene styrylphenyl ether/xylene/cyclohexanone=1:2:4:8 (v/v), and diluted with water of a volume equivalent to 10 L/ha, then sprayed on surface of the soil immediately after sowing. Test plants are grown in a greenhouse for 27 days after treatment to observe weed control activity and crop phytotoxicity of the test compounds.
(§3) Seeds of the aforementioned crop plants with herbicide-resistant PPO genes are planted along with those of weeds such as Echinochloa crus-galli, Abutilon theophrasti and Ipomoea hederacea, covered with soil of 1-2 cm deep, and the plants grown for 18 days in the greenhouse. Compounds of formulae 20 and 22 (wherein R is an ethyl group) of an amount of equivalent to 100 g/ha are dissolved in 20 volumes of a mixture of surfactant and liquid carrier, such as the mixture of calcium dodecylbenzenesulfonate/polyoxyethylene styrylphenyl ether/xylene/cyclohexanone=1:2:4:8 (v/v), and diluted with water of a volume equivalent to 10 L/ha, then sprayed onto plants from the above. Test plants are grown in a greenhouse for 20 days after treatment for observation of weed control activity and crop phytotoxicity by test compounds.

Echinochloa crus-galli = test: Weed control test in greenhouse; type: in vivo; details: 100 g/ha; either method (soil surface after sowing, 27 days; sprayed onto plants at 18 days, 20 days)
Protocol: as §2, §3

Ipomoea hederacea = test: Weed control test in greenhouse; type: in vivo; details: 100 g/ha; either method (soil surface after sowing, 27 days; sprayed onto plants at 18 days, 20 days)
Protocol: as §2, §3

[4] = system: crop plants transformed with the herbicide-resistant PPO gene; test: Weed control test, crop phytotoxicity in greenhouse; type: in vivo; details: 100 g/ha; either method (soil surface after sowing, 27 days; sprayed onto plants at 18 days, 20 days)
Protocol: as §2
Seeds of the aforementioned crop plants with herbicide-resistant PPO genes are planted along with those of weeds such as Echinochloa crus-galli, Abutilon theophrasti and Ipomoea hederacea, covered with soil of 1-2 cm deep, and the plants grown for 18 days in the greenhouse. […]

C#CCOc1cc(N2C(=O)C3=C(CCCC3)C2=O)c(F)cc1Cl [compound A, [N-(4-chloro-2-fluoro-5-propargyloxy)phenyl-]3,4,5,6-tetrahydrophthalimide]
growth of resistant transformants [1]: same level of growth
growth of sensitive transformants [2]: strongly suppressed
resistance or sensitivity of GB-2951 to the herbicide [3]: showed resistance

CC(C)OC(=O)c1cc(-n2c(=O)cc(C(F)(F)F)n(C)c2=O)ccc1Cl [formula 20]
weed control activity (growth) (Abutilon theophrasti): inhibited
weed control activity (growth) (Echinochloa crus-galli): inhibited
weed control activity (growth) (Ipomoea hederacea): inhibited
crop phytotoxicity [4]: no significant phytotoxicity

C[n+]1ccc(-c2cc[n+](C)cc2)cc1 [paraquat]
resistance or sensitivity of GB-2951 to the herbicide [3]: as sensitive

CN(C)C(=O)Nc1ccc(Cl)c(Cl)c1 [diuron]
resistance or sensitivity of GB-2951 to the herbicide [3]: as sensitive

COC(=O)c1cc(Oc2ccc(C(F)(F)F)cc2Cl)ccc1[N+](=O)[O-] [acifluorfen-methyl]
resistance or sensitivity of GB-2951 to the herbicide [3]: showed resistance
